Reference: patent US20120171126A1, “NOVEL [3,2-c] HETEROARYL STEROIDS AS GLUCOCORTICOID RECEPTOR AGONISTS COMPOSITIONS AND USES THEREOF” (priority 2009, published 2012)

What follows are compounds tested on IL-8 (assay: Glucocorticoid transrepression assay, IL-8 inhibition (TR)). Details: Homo sapiens; Table 1; NCl-H292 cells, TNFα 10 ng/ml; read-out: IL-8 inhibition (TR) Emax % inhibition.
Format: cell-based
Experimental: Human Lung epithelial cell line NCl-H292 cells were dissociated from stock flask using 0.05% trypsin/0.53 mM EDTA. Cells were suspended in complete medium and counted. Cells were plated in 96-well flat-bottom plates at 20K cells /well in 0.2 ml/well. Plates were incubated for 24-48 hours until cells were between 75-90% confluent. Medium was aspirated and replaced with medium containing various concentrations of steroids or antagonists. After 1 hour incubation at 37°, TNFα (10 ng/ml final concentration in 0.2 ml) was added and the cells incubated overnight. Control wells with and without TNF were included on each plate, as well as wells with TNF in addition to a maximum (10 μM) concentration of dexamethasone. The cell culture medium was sampled and IL-6 and IL-8 cytokine production was measured using the MSD Multi-Spot immunoassay.
Work on `Cn1ncc2c1C=C1CCC3C([C@@H](O)CC4(C)C3CC[C@]4(O)C(=O)CSc3ccccn3)C1(C)C2` (stereo partly drawn) [Compound 32] yielded an Emax of less than 60%.
Compound `CC(C)(C)c1ccc(-n2ncc3c2C=C2CCC4C([C@@H](O)CC5(C)C4CC[C@]5(O)C(=O)CSc4nc5ccccc5s4)C2(C)C3)cc1` (stereo partly drawn) [Compound 90] has an Emax of less than 60%.
`COc1ccc(-n2ncc3c2C=C2CCC4C([C@@H](O)CC5(C)C4CC[C@]5(O)C(=O)CSc4ccc5ccccc5n4)C2(C)C3)cc1` (stereo partly drawn) [Compound 89] gave an Emax of less than 60%.
`CC12Cc3cn(-c4ccccc4)nc3C=C1CCC1C2[C@@H](O)CC2(C)C1CC[C@]2(O)C(=O)COc1nc2ccccc2s1` (stereo partly drawn) [Compound 121] was tested, and the Emax was less than 60%.
`CC12Cc3cnn(-c4ccccn4)c3C=C1CCC1C2[C@@H](O)CC2(C)C1CC[C@]2(O)C(=O)CSc1ccc2ccccc2n1` (stereo partly drawn) [Compound 37] was tested, and the Emax was less than 60%.
Work on `Cn1c(SCC(=O)[C@@]2(O)CCC3C4CCC5=Cc6c(cnn6-c6nc7ccccc7[nH]6)CC5(C)C4[C@@H](O)CC32C)nc2ccccc21` (stereo partly drawn) [Compound 84] yielded an Emax of less than 60%.
Work on `COc1ccc2sc(SCC(=O)[C@@]3(O)CCC4C5CCC6=Cc7c(cnn7C)CC6(C)C5[C@@H](O)CC43C)nc2c1` (stereo partly drawn) [Compound 25] yielded an Emax of less than 60%.
Compound `CC12Cc3cnn(C(C)(C)C)c3C=C1CCC1C2[C@@H](O)CC2(C)C1CC[C@]2(O)C(=O)CSc1nc2ccccc2[nH]1` (stereo partly drawn) [Compound 68] has an Emax of less than 60%.
With `Cn1ncc2c1C=C1CCC3C([C@@H](O)CC4(C)C3CC[C@]4(O)C(=O)CSc3nc4cccnc4s3)C1(C)C2` (stereo partly drawn) [Compound 28] the Emax was less than 60%.
`Cn1cnnc1SCC(=O)[C@@]1(O)CCC2C3CCC4=Cc5c(cnn5CCC#N)CC4(C)C3[C@@H](O)CC21C` (stereo partly drawn) [Compound 55] gave an Emax of less than 60%.
With `COc1ccc2sc(SCC(=O)[C@@]3(O)CCC4C5CCC6=Cc7c(cnn7-c7ccccn7)CC6(C)C5[C@@H](O)CC43C)nc2c1` (stereo partly drawn) [Compound 39] the Emax was less than 60%.
`Cc1ccccc1-n1ncc2c1C=C1CCC3C([C@@H](O)CC4(C)C3CC[C@]4(O)C(=O)CSc3nc4cccnc4s3)C1(C)C2` (stereo partly drawn) [Compound 78] was tested, and the Emax was less than 60%.
With `Cc1ccccc1-n1ncc2c1C=C1CCC3C([C@@H](O)CC4(C)C3CC[C@]4(O)C(=O)CSc3nc4ccccc4s3)C1(C)C2` (stereo partly drawn) [Compound 76] the Emax was less than 60%.

Same assay, conditions: Homo sapiens; Table 2; NCl-H292 cells, TNFα 10 ng/ml
Compound `C[C@]12Cc3cnn(-c4ccc(F)cc4)c3C=C1CCC1C2[C@@H](O)C[C@@]2(C)C1CC[C@]2(O)C(=O)NCCc1cnccn1` (stereo partly drawn) [Compound 11] has an IC50 of 0.06 to 20 nM.
In the case of `C[C@H](NC(=O)[C@@]1(O)CCC2C3CCC4=Cc5c(cnn5-c5ccc(F)cc5)C[C@]4(C)C3[C@@H](O)C[C@@]21C)c1ccccc1` (stereo partly drawn) [Compound 13], the IC50 is reported as 0.06 to 20 nM.
For `CC12Cc3cnn(-c4ccc(F)cc4)c3C=C1CCC1C2[C@@H](O)CC2(C)C1CC[C@]2(O)C(=O)N[C@@H](CO)Cc1ccc2ccccc2c1` (stereo partly drawn) [Compound 22], the IC50 was 0.06 to 20 nM.
Work on `C[C@@H](NC(=O)[C@@]1(O)CCC2C3CCC4=Cc5c(cnn5-c5ccc(F)cc5)C[C@]4(C)C3[C@@H](O)C[C@@]21C)c1ccccc1` (stereo partly drawn) [Compound 6] yielded an IC50 of 0.06 to 20 nM.
With `C[C@]12Cc3cnn(-c4ccc(F)cc4)c3C=C1CCC1C2[C@@H](O)C[C@@]2(C)C1CC[C@]2(O)C(=O)NCc1ccc2nccn2c1` (stereo partly drawn) [Compound 10] the IC50 was 0.06 to 20 nM.
In the case of `CC12Cc3cnn(-c4ccc(F)cc4)c3C=C1CCC1C2[C@@H](O)CC2(C)C1CC[C@]2(O)C(=O)N[C@H](CO)Cc1ccccc1` (stereo partly drawn) [Compound 24], the IC50 is reported as 0.06 to 20 nM.
`C[C@]12Cc3cnn(-c4ccc(F)cc4)c3C=C1CCC1C2[C@@H](O)C[C@@]2(C)C1CC[C@]2(O)C(=O)NC1(c2ccccc2)CC1` (stereo partly drawn) [Compound 4] was tested, and the IC50 was 0.06 to 20 nM.
In the case of `C[C@@H](NC(=O)[C@@]1(O)CCC2C3CCC4=Cc5c(cnn5-c5ccc(F)cc5)C[C@]4(C)C3[C@@H](O)C[C@@]21C)c1cccc2ccccc12` (stereo partly drawn) [Compound 7], the IC50 is reported as 0.06 to 20 nM.
Work on `C[C@H](NC(=O)[C@@]1(OC(=O)c2ccco2)CCC2C3CCC4=Cc5c(cnn5-c5ccc(F)cc5)CC4(C)C3[C@@H](O)CC21C)c1cccc2ccccc12` (stereo partly drawn) [Compound 15] yielded an IC50 of 0.06 to 20 nM.

Same assay, conditions: Homo sapiens; Table 2; NCl-H292 cells, TNFα 10 ng/ml; read-out: IL-8 inhibition (TR) Emax % inhibition
Work on `C[C@]12Cc3cnn(-c4ccc(F)cc4)c3C=C1CCC1C2[C@@H](O)C[C@@]2(C)C1CC[C@]2(O)C(=O)NCCc1cnccn1` (stereo partly drawn) [Compound 11] yielded an Emax greater than 80%.
`C[C@H](NC(=O)[C@@]1(O)CCC2C3CCC4=Cc5c(cnn5-c5ccc(F)cc5)C[C@]4(C)C3[C@@H](O)C[C@@]21C)c1ccccc1` (stereo partly drawn) [Compound 13] gave an Emax greater than 80%.
`CC12Cc3cnn(-c4ccc(F)cc4)c3C=C1CCC1C2[C@@H](O)CC2(C)C1CC[C@]2(O)C(=O)N[C@@H](CO)Cc1ccc2ccccc2c1` (stereo partly drawn) [Compound 22] showed an Emax greater than 80%.
In the case of `C[C@@H](NC(=O)[C@@]1(O)CCC2C3CCC4=Cc5c(cnn5-c5ccc(F)cc5)C[C@]4(C)C3[C@@H](O)C[C@@]21C)c1ccccc1` (stereo partly drawn) [Compound 6], the Emax is reported as greater than 80%.
`C[C@]12Cc3cnn(-c4ccc(F)cc4)c3C=C1CCC1C2[C@@H](O)C[C@@]2(C)C1CC[C@]2(O)C(=O)NCc1ccc2nccn2c1` (stereo partly drawn) [Compound 10] showed an Emax greater than 80%.
Compound `CC12Cc3cnn(-c4ccc(F)cc4)c3C=C1CCC1C2[C@@H](O)CC2(C)C1CC[C@]2(O)C(=O)N[C@H](CO)Cc1ccccc1` (stereo partly drawn) [Compound 24] has an Emax greater than 80%.
`C[C@]12Cc3cnn(-c4ccc(F)cc4)c3C=C1CCC1C2[C@@H](O)C[C@@]2(C)C1CC[C@]2(O)C(=O)NC1(c2ccccc2)CC1` (stereo partly drawn) [Compound 4] gave an Emax greater than 80%.
In the case of `C[C@@H](NC(=O)[C@@]1(O)CCC2C3CCC4=Cc5c(cnn5-c5ccc(F)cc5)C[C@]4(C)C3[C@@H](O)C[C@@]21C)c1cccc2ccccc12` (stereo partly drawn) [Compound 7], the Emax is reported as greater than 80%.
For `C[C@H](NC(=O)[C@@]1(OC(=O)c2ccco2)CCC2C3CCC4=Cc5c(cnn5-c5ccc(F)cc5)CC4(C)C3[C@@H](O)CC21C)c1cccc2ccccc12` (stereo partly drawn) [Compound 15], the Emax was greater than 80%.

Same assay, conditions: Homo sapiens; Table 5; NCl-H292 cells, TNFα 10 ng/ml
`C[C@]12Cc3cnn(-c4ccc(F)cc4)c3C=C1CCC1C2[C@@H](O)C[C@@]2(C)C1CC[C@]2(O)C(=O)CN1CCN(c2ccccn2)CC1` (stereo partly drawn) [Compound 3] showed an IC50 of 0.06 to 20 nM.
Work on `C[C@]12Cc3cnn(-c4ccc(F)cc4)c3C=C1CCC1C2[C@@H](O)C[C@@]2(C)C1CC[C@]2(O)C(=O)CN1CCN(c2ncccn2)CC1` (stereo partly drawn) [Compound 4] yielded an IC50 of 0.06 to 20 nM.

Same assay, conditions: Homo sapiens; Table 5; NCl-H292 cells, TNFα 10 ng/ml; read-out: IL-8 inhibition (TR) Emax % inhibition
`C[C@]12Cc3cnn(-c4ccc(F)cc4)c3C=C1CCC1C2[C@@H](O)C[C@@]2(C)C1CC[C@]2(O)C(=O)CN1CCN(c2ccccn2)CC1` (stereo partly drawn) [Compound 3] showed an Emax greater than 80%.
In the case of `C[C@]12Cc3cnn(-c4ccc(F)cc4)c3C=C1CCC1C2[C@@H](O)C[C@@]2(C)C1CC[C@]2(O)C(=O)CN1CCN(c2ncccn2)CC1` (stereo partly drawn) [Compound 4], the Emax is reported as greater than 80%.
`C#CCN1CCN(CC(=O)[C@@]2(O)CCC3C4CCC5=Cc6c(cnn6-c6ccc(F)cc6)C[C@]5(C)C4[C@@H](O)C[C@@]32C)CC1` (stereo partly drawn) [Compound 2] was tested, and the Emax was less than 60%.
